Non-standard residues stand in square brackets, D forms with d. Residues, ends and D or L forms follow the SMILES beside them. *: point of attachment. X2 = O=C(NCCCCCCN*)c1cccc2sc(N3CCOCC3)nc12; Dip = N[C@H](C(=O)O)C(c1ccccc1)c1ccccc1; Chg = N[C@H](C(=O)O)C1CCCCC1; NMeA = CN[C@@H](C)C(=O)O
Columns and labels:
Assay type in all cases: physicochemical
[1] = Kinetic solubility of the compound incubated for 60 mins under shaking condition by UHPLC-MS analysis; settings: 1 h
[2] = Distribution coefficient, logD of compound in n-Octanol/PBS at pH 7.4 incubated for 30 mins under shaking condition by UHPLC-MS analysis
[3] = Kinetic solubility of the compound incubated for 60 mins under shaking condition by UV-Vis spectroscopic analysis; settings: 1 h
[4] = Distribution coefficient, logD of compound in n-Octanol/PBS at pH 7.4 incubated for 30 mins under shaking condition by UV-Vis spectroscopic analysis; settings: for logD at 0.5 h: n-octanol/PBS, pH 7.4; for logD: octanol/water, pH 7.4, 0.5 h, BLD = below limit of detection

Structure (SMILES)	log(Kinetic_solubility) [1]	logD at 0.5 h [2]	log(Kinetic_solubility) ([3]; BLD = below limit of detection)	logD at 0.5 h [4]	logD [4]	log(Kinetic_solubility) [3]	log(Kinetic_solubility) ([1]; BLD = below limit of detection)
O=C(CCCCCCCCCCC(=O)N1CCN(C(=O)c2cc(Cc3n[nH]c(=O)c4ccccc34)ccc2F)CC1)NCCNc1cccc2c1C(=O)N(C1CCC(=O)NC1=O)C2=O (stereo not given)	-6.13	3.64	Bld	3.48			
COc1ccc2c(c1)c(CC(=O)NCCCCCCC(=O)N[C@H](C(=O)N1C[C@H](O)C[C@H]1C(=O)N[C@@H](C)c1ccc(-c3scnc3C)cc1)C(C)(C)C)c(C)n2C(=O)c1ccc(Cl)cc1	-7.34	5.6	Bld		Bld		
Cc1ncsc1-c1ccc([C@H](C)NC(=O)[C@@H]2C[C@H](O)CN2C(=O)[C@@H](NC(=O)COCCOCCOCC(=O)N[C@H](C(=O)N2C[C@@H](O)C[C@H]2C(=O)N[C@@H](C)c2ccc(-c3scnc3C)cc2)C(C)(C)C)C(C)(C)C)cc1	-4.66	3.5		3.74		-4.62	
Cc1ncsc1-c1ccc(CNC(=O)[C@@H]2C[C@@H](O)CN2C(=O)[C@@H](NC(=O)COCCOCCOCC(=O)N[C@H](C(=O)N2C[C@H](O)C[C@H]2C(=O)NCc2ccc(-c3scnc3C)cc2)C(C)(C)C)C(C)(C)C)cc1	-3.98	3.19		3.7		-3.93	
O=C(COc1c(-c2csc(N3CCOCC3)n2)ccc(F)c1F)NCCCCCCCCCCNc1ccc2nnn(C3CCC(=O)NC3=O)c(=O)c2c1 (stereo not given)		4.93	Bld		Bld		Bld
CN[C@@H](C)C(=O)N[C@H](C(=O)N1CCC[C@H]1C(=O)N[C@H](C(=O)NCCCCCCNC(=O)c1cccc2sc(N3CCOCC3)nc12)C(c1ccccc1)c1ccccc1)C1CCCCC1 (H-[NMeA][Chg]P[Dip]-X2)	-4.72	5.1			Bld	-4.66	
Cc1ncsc1-c1ccc([C@H](CC(=O)NCCCCCCNC(=O)COc2c(-c3csc(N4CCOCC4)n3)ccc(F)c2F)NC(=O)[C@@H]2C[C@@H](O)CN2C(=O)[C@@H](NC(=O)C2(F)CC2)C(C)(C)C)cc1	-5.14	4.82			Bld	-5	
Cc1ncsc1-c1ccc(CNC(=O)[C@@H]2C[C@@H](O)CN2C(=O)[C@@H](NC(=O)CCCCOCCCCCOCCCCCCNc2cccc3c2C(=O)N(C2CCC(=O)NC2=O)C3=O)C(C)(C)C)cc1 (stereo not given in full)	-7.05	5.2	Bld		Bld		
COc1ccc2c(c1)c(CC(=O)N1CCN(CCOCCOCC(=O)N[C@H](C(=O)N3C[C@H](O)C[C@H]3C(=O)N[C@@H](C)c3ccc(-c4scnc4C)cc3)C(C)(C)C)CC1)c(C)n2C(=O)c1ccc(Cl)cc1	-5.22	4.33		4.1		-5.11	
Cc1ncsc1-c1ccc([C@H](C)NC(=O)[C@@H]2C[C@@H](O)CN2C(=O)[C@@H](NC(=O)CCCCn2cc(CN3CCN(C(=O)C[C@@H]4N=C(c5ccc(Cl)cc5)c5c(sc(C)c5C)-n5c(C)nnc54)CC3)nn2)C(C)(C)C)cc1	-4.68	4.12		3.81		-4.54	
Cn1c(=O)n(C)c2cc(CNCCCNCC3CCN(c4ccc(C(=O)N[C@H]5CC[C@H](Oc6ccc(C#N)c(Cl)c6)CC5)nn4)CC3)ccc21	-4.14	4.43			Bld	-4.28	
Cc1ncsc1-c1ccc([C@H](C)NC(=O)[C@@H]2C[C@@H](O)CN2C(=O)[C@@H](NC(=O)CN2CCN(C(=O)C[C@@H]3N=C(c4ccc(Cl)cc4)c4c(sc(C)c4C)-n4c(C)nnc43)CC2)C(C)(C)C)cc1	-4.9	4.56			Bld	-4.79	
CCOC(=O)c1c(C)n(Cc2ccccc2)c2ccc(OCCCCCCC(=O)N[C@H](C(=O)N3C[C@H](O)C[C@H]3C(=O)N[C@@H](C)c3ccc(-c4scnc4C)cc3)C(C)(C)C)cc12		5.15	Bld		Bld		Bld
COc1ccc2c(c1)c(CC(=O)NCCN1CCN(CCOCCOCC(=O)N[C@H](C(=O)N3C[C@H](O)C[C@H]3C(=O)N[C@@H](C)c3ccc(-c4scnc4C)cc3)C(C)(C)C)CC1)c(C)n2C(=O)c1ccc(Cl)cc1	-4.62	5.1			Bld	-4.59	
CC(=O)c1c(C)c2cnc(Nc3ccc(N4CCN(CCOCCOCCOCCNC(=O)COc5cccc6c5C(=O)N(C5CCC(=O)NC5=O)C6=O)CC4)cn3)nc2n(C2CCCC2)c1=O (stereo not given)	-5.05	2.29		2.17		-4.72	
Cc1ncsc1-c1ccc([C@H](CC(=O)N2CCC(N3CCC(C#Cc4ccc(C(=O)N[C@H]5C(C)(C)[C@H](Oc6ccc(C#N)c(Cl)c6)C5(C)C)cc4)CC3)CC2)NC(=O)[C@@H]2C[C@@H](O)CN2C(=O)[C@@H](NC(=O)C2(F)CC2)C(C)(C)C)cc1		5.5	Bld		Bld		Bld
N#Cc1ccc(O[C@H]2CC[C@H](NC(=O)c3ccc(N4CCC(CN5CCN(c6cc7c(cc6F)C(=O)N(C6CCC(=O)NC6=O)C7=O)CC5)CC4)nn3)CC2)cc1Cl (stereo not given in full) [BAVDEGALUTAMIDE]		5.38	Bld		Bld		Bld
Cc1ncsc1-c1ccc([C@H](C)NC(=O)[C@@H]2C[C@@H](O)CN2C(=O)[C@@H](NC(=O)CCCCn2cc(CCCC(=O)N3CCN(C(=O)c4cc(Cc5n[nH]c(=O)c6ccccc56)ccc4F)CC3)nn2)C(C)(C)C)cc1	-4.34	3		2.89		-4.37	
Cc1ncsc1-c1ccc(CNC(=O)[C@@H]2C[C@@H](O)CN2C(=O)[C@@H](NC(=O)COCCOCCOCCOCCOCCOCC(=O)N[C@H](C(=O)N2C[C@H](O)C[C@H]2C(=O)NCc2ccc(-c3scnc3C)cc2)C(C)(C)C)C(C)(C)C)cc1	-3.24	3		3.09		-3.25	
Cc1ncsc1-c1ccc([C@H](C)NC(=O)[C@@H]2C[C@@H](O)CN2C(=O)[C@@H](NC(=O)COCCOCCOCC(=O)N[C@H](C(=O)N2C[C@H](O)C[C@H]2C(=O)N[C@@H](C)c2ccc(-c3scnc3C)cc2)C(C)(C)C)C(C)(C)C)cc1	-4.23	3.9		3.5		-4.21	
Cc1ncsc1-c1ccc([C@H](C)NC(=O)[C@@H]2C[C@@H](O)CN2C(=O)[C@@H](NC(=O)CCCCCCCCCCC(=O)N2CCN(C(=O)c3cc(Cc4n[nH]c(=O)c5ccccc45)ccc3F)CC2)C(C)(C)C)cc1	-7.21	5	Bld		Bld		
O=C(COc1c(-c2csc(N3CCOCC3)n2)ccc(F)c1F)NCCOCCOCCOCCOCCNc1cccc2c1C(=O)N(C1CCC(=O)NC1=O)C2=O (stereo not given)	-4.28	2.82		2.82		-4.28	
COc1ccc2c(c1)c(CC(=O)N1CCN(CCC(=O)N[C@H](C(=O)N3C[C@H](O)C[C@H]3C(=O)N[C@@H](C)c3ccc(-c4scnc4C)cc3)C(C)(C)C)CC1)c(C)n2C(=O)c1ccc(Cl)cc1	-6.1	5.5	Bld		Bld		
Cn1c(=O)n(C)c2cc(CNCCOCCNCC3CCN(c4ccc(C(=O)N[C@H]5CC[C@H](Oc6ccc(C#N)c(Cl)c6)CC5)nn4)CC3)ccc21	-3.64	3.7		3.25		-3.69	
Cc1ncsc1-c1ccc([C@H](C)NC(=O)[C@@H]2C[C@@H](O)CN2C(=O)[C@@H](NC(=O)COCCOCCNC(=O)COc2c(-c3csc(N4CCOCC4)n3)ccc(F)c2F)C(C)(C)C)cc1	-4.52	3.94		3.5		-4.47	
Cn1c(=O)n(C)c2cc(CNCCOCCOCCNCC3CCN(c4ccc(C(=O)N[C@H]5CC[C@H](Oc6ccc(C#N)c(Cl)c6)CC5)nn4)CC3)ccc21	-3.06	2.52		2.45		-3.07	
COc1ccc2c(c1)c(CC(=O)N1CCN(CC(=O)N[C@H](C(=O)N3C[C@H](O)C[C@H]3C(=O)N[C@@H](C)c3ccc(-c4scnc4C)cc3)C(C)(C)C)CC1)c(C)n2C(=O)c1ccc(Cl)cc1	-6.62	5.3	Bld		Bld		
CCOC(=O)c1c(C)n(Cc2ccccc2)c2ccc(OCCCCCCCCC(=O)N[C@H](C(=O)N3C[C@H](O)C[C@H]3C(=O)N[C@@H](C)c3ccc(-c4scnc4C)cc3)C(C)(C)C)cc12		5.21	Bld		Bld		Bld
Cc1ncsc1-c1ccc([C@H](CC(=O)NCCCCCCCCCCC(=O)N[C@H]2C(C)(C)[C@H](Oc3ccc(C#N)c(Cl)c3)C2(C)C)NC(=O)[C@@H]2C[C@@H](O)CN2C(=O)[C@@H](NC(=O)C2(F)CC2)C(C)(C)C)cc1		4.9	Bld		Bld		Bld
Cc1ncsc1-c1ccc([C@H](C)NC(=O)[C@@H]2C[C@@H](O)CN2C(=O)[C@@H](NC(=O)CCCCCCOc2ccc3c(c2)c(C(=O)O)c(C)n3Cc2ccccc2)C(C)(C)C)cc1	-5.8	5	Bld		Bld		

From ChEMBL document CHEMBL5579898, “Between Theory and Practice: Computational/Experimental Integrated Approaches to Understand the Solubility and Lipophilicity of PROTACs” (J Med Chem, 2024)
